In US20260226071A1, “2, 4-DIANILINOPYRIMIDINE-BASED AURORA-A KINASE SELECTIVE DEGRADATION INDUCING COMPOUNDS” (UPPTHERA, INC., priority 2023, published 2026):

Tests used:
NCI-H446 cell line = experiment: Cell viability assay for NCI-H446 cell line; type: cell-based; details: Homo sapiens, NCI-H446, 120 h; H446 cells, 5 days culture, EZ-Cytox; read-out: IC50 value (Level)
Method in brief: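 H446 cells seeded 24 h before treatment with compound in 3-fold dilutions, 1000 to 0.15 nM, then cultured 5 days at 37 °C, 5% CO2 in RPMI 1640/10% FBS. Viability read with EZ-Cytox (4 h) as absorbance at 450 nm.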

Aurora kinase A (AURKA) = target: T1, Aurora kinase A (AURKA) (Homo sapiens, UniProt O14965); experiment: Luciferase assay for AURKA in HeLa LgBit (AURKA-HiBit KI) cell line; type: cell-based; details: HeLa LgBit (AURKA-HiBit KI) cells, measured after 12 hours
T1 construct: endogenous in cells; host or cells: HeLa LgBit (AURKA-HiBit KI), CRISPR/Cas9 knock-in at the endogenous AURKA locus
T1 sequence (O14965 1-403): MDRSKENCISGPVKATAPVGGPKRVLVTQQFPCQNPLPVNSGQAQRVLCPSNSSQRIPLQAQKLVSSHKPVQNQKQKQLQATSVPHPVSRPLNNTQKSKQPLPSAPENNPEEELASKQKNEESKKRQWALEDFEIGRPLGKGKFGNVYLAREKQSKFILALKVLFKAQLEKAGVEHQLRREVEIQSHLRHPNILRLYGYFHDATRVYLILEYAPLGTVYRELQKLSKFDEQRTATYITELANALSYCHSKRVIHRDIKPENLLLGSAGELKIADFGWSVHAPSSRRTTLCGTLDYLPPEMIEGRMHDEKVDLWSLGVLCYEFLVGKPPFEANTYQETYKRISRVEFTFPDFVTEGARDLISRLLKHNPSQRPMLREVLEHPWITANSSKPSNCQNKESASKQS
Method in brief: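 HeLa cells stably expressing LgBit, with HiBit knocked in at the C-terminus of endogenous AURKA; 3×10^4 cells seeded, 18 h, then Endurazine substrate 2 h. Compounds tested at 10 nM or 100 nM; luminescence read at 470-480 nm after 12 h as real-time read-out.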

SMILES	IC50 (NCI-H446 cell line) [nM]	luminescence value (Level) (Aurora kinase A (AURKA); 10 nM compound)	luminescence value (Level) (Aurora kinase A (AURKA); 100 nM compound)
CN(CC1CCN(c2ccc(NC3CCC(=O)NC3=O)cc2F)CC1)[C@H]1CC[C@H](NC(=O)c2ccc(Nc3ncc(F)c(Nc4ccc(C(=O)Nc5ccccc5Cl)cc4)n3)cc2)CC1 (stereo partly drawn) [Compound 66, N-(2-chlorophenyl)-4-[[2-[4-[[4-[[1-[4-[(2,6-dioxo-3-piperidyl)amino]-2-fluoro-phenyl]-4-piperidyl]methyl-methyl-amino]cyclohexyl]carbamoyl]anilino]-5-fluoro-pyrimidin-4-yl]amino]benzamide]	< 50	A (A is <0.3)	A (A is <0.2)
CC(CN1CCN(c2ccc(C3CCC(=O)NC3=O)cc2)CC1)N1CCC(NC(=O)c2ccc(Nc3ncc(F)c(Nc4ccc(C(=O)Nc5ccccc5Cl)cc4)n3)cc2)CC1 (stereo not drawn) [Compound 67, N-(2-chlorophenyl)-4-((2-((4-((1-(1-(4-(4-(2,6-dioxopiperidin-3-yl)phenyl)piperazin-1-yl)propan-2-yl)piperidin-4-yl)carbamoyl)phenyl)amino)-5-fluoropyrimidin-4-yl)amino)benzamide]	100 to 150	B (B is 0.3 to 0.5)	A (A is <0.2)
CN(CC1CCN(c2ccc(NC3CCC(=O)NC3=O)cc2)CC1)[C@H]1CC[C@H](NC(=O)c2ccc(Nc3ncc(F)c(Nc4ccc(C(=O)Nc5ccccc5Cl)cc4)n3)cc2)CC1 (stereo partly drawn) [Compound 69, N-(2-chlorophenyl)-4-((2-((4-(((1r,4r)-4-(((1-(4-((2,6-dioxopiperidin-3-yl)amino)phenyl)piperidin-4-yl)methyl)(methyl)amino)cyclohexyl)carbamoyl)phenyl)amino)-5-fluoropyrimidin-4-yl)amino)benzamide]	50 to 100	A (A is <0.3)	A (A is <0.2)
O=C1CCC(c2ccc(N3CCN(CCN4CCC(C(=O)Nc5ccc(Nc6ncc(F)c(Nc7ccc(C(=O)Nc8ccccc8Cl)cc7)n6)cc5)CC4)CC3)cc2)C(=O)N1 (stereo not drawn) [Compound 70, N-(4-((4-((4-((2-chlorophenyl)carbamoyl)phenyl)amino)-5-fluoropyrimidin-2-yl)amino)phenyl)-1-(2-(4-(4-(2,6-dioxopiperidin-3-yl)phenyl)piperazin-1-yl)ethyl)piperidine-4-carboxamide]	50 to 100	A (A is <0.3)	A (A is <0.2)
O=C1CCC(c2ccc(N3CCN(CCCN4CCC(NC(=O)c5ccc(Nc6ncc(F)c(Nc7ccc(C(=O)Nc8ccccc8Cl)cc7)n6)cc5)CC4)CC3)cc2)C(=O)N1 (stereo not drawn) [Compound 71, N-(2-chlorophenyl)-4-((2-((4-((1-(3-(4-(4-(2,6-dioxopiperidin-3-yl)phenyl)piperazin-1-yl)propyl)piperidin-4-yl)carbamoyl)phenyl)amino)-5-fluoropyrimidin-4-yl)amino)benzamide]	100 to 150	A (A is <0.3)	A (A is <0.2)
CCC(CN1CCN(c2ccc(C3CCC(=O)NC3=O)cc2)CC1)C1CCN(NC(=O)c2ccc(Nc3ncc(F)c(Nc4ccc(C(=O)Nc5ccccc5Cl)cc4)n3)cc2)CC1 (stereo not drawn) [Compound 72, N-(2-chlorophenyl)-4-((2-((4-((4-(1-(4-(4-(2,6-dioxopiperidin-3-yl)phenyl)piperazin-1-yl)butan-2-yl)piperidin-1-yl)carbamoyl)phenyl)amino)-5-fluoropyrimidin-4-yl)amino)benzamide]	< 50	B (B is 0.3 to 0.5)	A (A is <0.2)
O=C1CCC(Nc2ccc(N3CCN(CCN4CCC(NC(=O)c5ccc(Nc6ncc(F)c(Nc7ccc(C(=O)Nc8ccccc8Cl)cc7)n6)cc5)CC4)CC3)cc2)C(=O)N1 (stereo not drawn) [Compound 73, N-(2-chlorophenyl)-4-((2-((4-((1-(2-(4-(4-((2,6-dioxopiperidin-3-yl)amino)phenyl)piperazin-1-yl)ethyl)piperidin-4-yl)carbamoyl)phenyl)amino)-5-fluoropyrimidin-4-yl)amino)benzamide]	100 to 150	A (A is <0.3)	A (A is <0.2)
O=C1CCC(c2ccc(N3CCN(CC[C@H]4CC[C@H](NC(=O)c5ccc(Nc6ncc(F)c(Nc7ccc(C(=O)Nc8ccccc8Cl)cc7)n6)cc5)CC4)CC3)c(F)c2)C(=O)N1 (stereo partly drawn) [Compound 74, N-(2-chlorophenyl)-4-((2-((4-(((1r,4r)-4-(2-(4-(4-(2,6-dioxopiperidin-3-yl)-2-fluorophenyl)piperazin-1-yl)ethyl)cyclohexyl)carbamoyl)phenyl)amino)-5-fluoropyrimidin-4-yl)amino)benzamide]	< 50	B (B is 0.3 to 0.5)	A (A is <0.2)
CN(CCN1CCN(c2ccc(C3CCC(=O)NC3=O)cc2)CC1)[C@H]1CC[C@H](NC(=O)c2ccc(Nc3ncc(F)c(Nc4ccc(C(=O)Nc5ccccc5Cl)cc4)n3)cc2)CC1 (stereo partly drawn) [Compound 75, N-(2-chlorophenyl)-4-((2-((4-(((1r,4r)-4-((2-(4-(4-(2,6-dioxopiperidin-3-yl)phenyl)piperazin-1-yl)ethyl)(methyl)amino)cyclohexyl)carbamoyl)phenyl)amino)-5-fluoropyrimidin-4-yl)amino)benzamide]	50 to 100	A (A is <0.3)	A (A is <0.2)
CN(CC1CCN(c2ccc(C3CCC(=O)NC3=O)cc2F)CC1)[C@H]1C[C@H](NC(=O)c2ccc(Nc3ncc(F)c(Nc4ccc(C(=O)Nc5ccccc5Cl)cc4)n3)cc2)C1 (stereo partly drawn) [Compound 76, N-(2-chlorophenyl)-4-((2-((4-(((1r,3r)-3-(((1-(4-(2,6-dioxopiperidin-3-yl)-2-fluorophenyl)piperidin-4-yl)methyl)(methyl)amino)cyclobutyl)carbamoyl)phenyl)amino)-5-fluoropyrimidin-4-yl)amino)benzamide]	50 to 100	B (B is 0.3 to 0.5)	A (A is <0.2)
O=C1CCC(c2ccc(N3CCC(CN4CC5(CC(NC(=O)c6ccc(Nc7ncc(F)c(Nc8ccc(C(=O)Nc9ccccc9Cl)cc8)n7)cc6)C5)C4)CC3)c(F)c2)C(=O)N1 (stereo not drawn) [Compound 77, N-(2-chlorophenyl)-4-((2-((4-((2-((1-(4-(2,6-dioxopiperidin-3-yl)-2-fluorophenyl)piperidin-4-yl)methyl)-2-azaspiro[3.3]heptan-6-yl)carbamoyl)phenyl)amino)-5-fluoropyrimidin-4-yl)amino)benzamide]	50 to 100	A (A is <0.3)	A (A is <0.2)
O=C1CCC(c2ccc(N3CC4(CCN(CC5CCN(NC(=O)c6ccc(Nc7ncc(F)c(Nc8ccc(C(=O)Nc9ccccc9Cl)cc8)n7)cc6)CC5)CC4)C3)c(F)c2)C(=O)N1 (stereo not drawn) [Compound 78, N-(2-chlorophenyl)-4-[[2-[4-[[4-[[2-[4-(2,6-dioxo-3-piperidyl)-2-fluoro-phenyl]-2,7-diazaspiro[3.5]nonan-7-yl]methyl]-1-piperidyl]carbamoyl]anilino]-5-fluoro-pyrimidin-4-yl]amino]benzamide]	50 to 100	B (B is 0.3 to 0.5)	A (A is <0.2)
C[C@@H](CN1CCN(c2ccc(C3CCC(=O)NC3=O)cc2)CC1)C1CCN(NC(=O)c2ccc(Nc3ncc(F)c(Nc4ccc(C(=O)Nc5ccccc5Cl)cc4)n3)cc2)CC1 (stereo partly drawn) [Compound 79, N-(2-chlorophenyl)-4-((2-((4-((4-((2R)-1-(4-(4-(2,6-dioxopiperidin-3-yl)phenyl)piperazin-1-yl)propan-2-yl)piperidin-1-yl)carbamoyl)phenyl)amino)-5-fluoropyrimidin-4-yl)amino)benzamide]	< 50	A (A is <0.3)	A (A is <0.2)
CN(CC1CCN(c2ccc(C3CCC(=O)NC3=O)cc2F)CC1)[C@H]1CC[C@H](NC(=O)c2ccc(Nc3ncc(F)c(Nc4ccc(C(=O)Nc5ccccc5Cl)cc4)n3)cc2)CC1 (stereo partly drawn) [Compound 80, N-(2-chlorophenyl)-4-((2-((4-(((1r,4r)-4-(((1-(4-(2,6-dioxopiperidin-3-yl)-2-fluorophenyl)piperidin-4-yl)methyl)(methyl)amino)cyclohexyl)carbamoyl)phenyl)amino)-5-fluoropyrimidin-4-yl)amino)benzamide]	50 to 100	A (A is <0.3)	A (A is <0.2)
CN(CC1CCN(c2ccc(C3CCC(=O)NC3=O)cc2F)CC1)C1CCN(NC(=O)c2ccc(Nc3ncc(F)c(Nc4ccc(C(=O)Nc5ccccc5Cl)cc4)n3)cc2)CC1 (stereo not drawn) [Compound 81, N-(2-chlorophenyl)-4-((2-((4-((4-(((1-(4-(2,6-dioxopiperidin-3-yl)-2-fluorophenyl)piperidin-4-yl)methyl)(methyl)amino)piperidin-1-yl)carbamoyl)phenyl)amino)-5-fluoropyrimidin-4-yl)amino)benzamide]	< 50	A (A is <0.3)	A (A is <0.2)
